Measured values taken from patent publication US20060235222A1, “Indole-derivative modulators of steroid hormone nuclear receptors” (ELI LILLY AND COMPANY, priority 2003, published 2006).

Columns and labels:
human MR = target: T1, human MR (Homo sapiens, UniProt P08235); experiment: Mineralocorticoid Receptor Binding Assay (Method 1), [3H]-aldosterone competition; conditions: 0.5 nM [3H]-aldosterone, human MR expressed in Sf9 cells
T1 construct: The full length human MR gene is cloned from a human kidney or human brain cDNA library; inferred from own knowledge of the pAcHLT vector (N); made in house; host or cells: Sf9 insect cells (baculovirus)
T1 sequence (P08235 1-984): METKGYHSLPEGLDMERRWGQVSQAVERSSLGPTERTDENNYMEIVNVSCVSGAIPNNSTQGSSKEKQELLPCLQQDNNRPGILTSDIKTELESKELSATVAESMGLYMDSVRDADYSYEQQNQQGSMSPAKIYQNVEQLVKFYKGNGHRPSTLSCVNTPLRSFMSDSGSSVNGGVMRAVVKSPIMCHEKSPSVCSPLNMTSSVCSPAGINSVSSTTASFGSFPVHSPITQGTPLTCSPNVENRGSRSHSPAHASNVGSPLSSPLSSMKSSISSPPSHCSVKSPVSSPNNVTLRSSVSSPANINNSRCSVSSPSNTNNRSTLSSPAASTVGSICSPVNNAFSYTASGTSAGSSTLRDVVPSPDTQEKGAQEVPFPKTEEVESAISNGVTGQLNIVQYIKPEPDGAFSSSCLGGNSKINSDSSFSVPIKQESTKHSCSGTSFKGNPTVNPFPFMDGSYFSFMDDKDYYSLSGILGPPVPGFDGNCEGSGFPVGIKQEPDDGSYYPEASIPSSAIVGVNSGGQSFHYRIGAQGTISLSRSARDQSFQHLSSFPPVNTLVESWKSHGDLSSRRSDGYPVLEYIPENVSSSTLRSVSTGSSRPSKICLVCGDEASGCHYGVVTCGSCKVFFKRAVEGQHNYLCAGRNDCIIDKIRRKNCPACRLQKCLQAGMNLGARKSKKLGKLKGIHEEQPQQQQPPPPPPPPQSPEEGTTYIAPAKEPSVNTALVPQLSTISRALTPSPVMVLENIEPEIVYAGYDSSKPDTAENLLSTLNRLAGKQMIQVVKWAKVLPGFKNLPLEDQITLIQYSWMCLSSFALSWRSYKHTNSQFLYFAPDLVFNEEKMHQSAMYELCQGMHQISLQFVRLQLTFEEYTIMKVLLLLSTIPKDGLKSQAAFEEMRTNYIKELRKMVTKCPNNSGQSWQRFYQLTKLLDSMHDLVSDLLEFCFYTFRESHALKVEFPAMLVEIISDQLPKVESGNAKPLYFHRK
Description: Mineralocorticoid Receptor Binding Assay (Method 1):
The full length human MR gene is cloned from a human kidney or human brain cDNA library. […] The PCR reaction is performed in a final volume of 50 μl containing about 1 μl of a 50× stock solution of polymerase; about 1 μl of a 50× stock solution of dNTP; about 5 μl of an appropriate PCR buffer; about 1 μl of each primer; about 5 μl of a H. kidney or H. brain cDNA library; and about 36 μl of water. The reaction is allowed to denature for about 30 seconds at 95 degrees Celsius, anneal for about 30 seconds at 55 degrees Celsius, and extend for about 5 minutes at 72 degrees Celsius, the sequence being repeated for a total of about 35 cycles. […] To extract the cDNA product from the agarose gel, the QIAEX II Gel Extraction protocol (QIAGEN, Inc.) is employed according to the manufacturer's instructions. Following extraction, the MR cDNA is cloned into an appropriate cloning vector (Zero Blunt TOPO PCR Cloning Kit (Invitrogen, Inc.) and a pAcHLT-baculovirus transfer vector (B.D./Pharminogen), then expressed in SF9 insect cells, essentially according to manufacturer's instructions. Sf9 cells are grown at a scale where gram quantity cell pellets are obtained for subsequent use in the MR binding assay. Harvested cell pellets are lysed by repeated freeze-thaw cycles (about 4) in a suitable lysis buffer then centrifuged at about 1×10^3 G (with the supernatant being saved for future assays).
MR binding assays are performed in a final total volume of about 250 μl containing about 20-25 μg of protein and 0.5 nM of [^3H]-aldosterone plus varying concentrations of test compound or vehicle. The assay binding buffer consists of 30 mM sodium molybdate, 30 mM of TRIS-HCl, 5 mM sodium phosphate, 5 mM sodium pyrophosphate, and about 10% glycerol, pH=7.5.
Incubations are carried out at 4 degrees Celsius with shaking for about 16 hours. 200 μl aliquots of each incubation are filtered onto Millipore HA 0.45 micron 96-well filter plates, pre-moistened with cold 30 mM TRIS-HCl. The filter plates are suctioned dry with vacuum and immediately washed 3× with cold 30 mM TRIS-HCl. The plates are then punched out and the amount of receptor-ligand complex is determined by liquid scintillation counting using 4 ml of Ready Protein Plus™ liquid scintillation cocktail.

glucocorticoid receptor = target: T2, glucocorticoid receptor (Homo sapiens, UniProt P04150); experiment: Glucocorticoid Receptor Binding Assay (Method 1), [3H]-dexamethasone competition, A549 cell extract; conditions: 1.86 nM [3H]-dexamethasone, read-out: GR Ki (nM) Method 1
T2 construct: containing 50-200 ug of A549 cell extract and 1.86 nM; host or cells: A549 human lung epithelial cells
T2 sequence (P04150 1-777): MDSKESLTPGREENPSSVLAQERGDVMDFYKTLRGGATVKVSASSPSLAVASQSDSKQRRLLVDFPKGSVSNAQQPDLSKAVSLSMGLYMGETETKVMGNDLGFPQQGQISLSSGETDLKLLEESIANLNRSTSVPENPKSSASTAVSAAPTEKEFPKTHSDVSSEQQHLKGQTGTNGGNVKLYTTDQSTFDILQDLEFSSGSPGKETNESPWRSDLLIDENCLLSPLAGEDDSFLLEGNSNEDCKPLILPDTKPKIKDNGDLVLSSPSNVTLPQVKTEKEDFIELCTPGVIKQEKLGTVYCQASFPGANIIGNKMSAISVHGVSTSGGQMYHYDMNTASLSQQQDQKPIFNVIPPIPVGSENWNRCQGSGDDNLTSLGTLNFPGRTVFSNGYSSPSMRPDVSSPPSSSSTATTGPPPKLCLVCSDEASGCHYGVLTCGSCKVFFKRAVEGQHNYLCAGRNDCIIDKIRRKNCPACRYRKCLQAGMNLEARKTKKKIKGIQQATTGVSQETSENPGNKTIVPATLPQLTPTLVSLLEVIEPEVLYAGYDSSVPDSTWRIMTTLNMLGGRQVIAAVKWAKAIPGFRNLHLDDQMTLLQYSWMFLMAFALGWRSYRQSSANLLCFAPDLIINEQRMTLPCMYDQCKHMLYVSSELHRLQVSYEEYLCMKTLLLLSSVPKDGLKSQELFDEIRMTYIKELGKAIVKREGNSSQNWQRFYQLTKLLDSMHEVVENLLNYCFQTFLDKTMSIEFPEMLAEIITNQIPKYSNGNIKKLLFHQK
Description: Glucocorticoid Receptor Binding Assay (Method 1):
A549 human lung epithelial cells (ATCC) are grown at a scale where gram quantity cell pellets are obtained. Harvested cell pellets are washed twice in cold phosphate buffered saline, centrifuged, and resuspended in cold assay binding buffer. The assay binding buffer consists of 10% glycerol, 50 mM Tris-HCl (pH7.2), 75 mM sodium chloride, 1.5 mM magnesium chloride, 1.5 mM EDTA, and 10 mM sodium molybdate. Cell suspensions were lysed via sonication, centrifuged, and the “extract” supernatant is snap frozen and stored at −80 C until needed.
Incubations are carried out at 4 degrees Celsius for 16 hours. After incubation, 70 ul of 3× dextran-coated charcoal solution is added to each reaction, mixed, and incubated for 8 minutes at RT. 3×-dextran-coated charcoal solution consists of 250 ml assay binding buffer, 3.75 g Norit A charcoal (Sigma), and 1.25 g dextran T-70 (Amersham). Charcoal/unbound radioligand complexes are removed by centrifugation of the plate and 140 ul of supernatant from each well is transferred to another 96 well Optiplate (Packard Instruments). 200 ul of Microscint-20 scinillant (Packard Instruments) is added to each well and amount of receptor bound radioligand is determined using Packard Instruments TopCount instrument.

Ki (human MR) | Ki (glucocorticoid receptor) | SMILES
< 500 nM | < 500 nM | CCC(CC)(c1ccco1)c1c[nH]c2c(NS(C)(=O)=O)cccc12 [Example 30, N-[3-(1-Ethyl-1-furan-2-yl-propyl)-1H-indol-7-yl]-methanesulfonamide]
< 500 nM | < 500 nM | CCC(CC)(c1cc2ccccc2o1)c1c[nH]c2c(NS(C)(=O)=O)cccc12 [Example 2, N-[3-(1-Benzofuran-2-yl-1-ethyl-propyl)-1H-indol-7-yl]-methanesulfonamide]
< 500 nM | < 500 nM | CCC(C)(c1ccc(F)cc1)c1c[nH]c2c(NS(C)(=O)=O)cccc12 (stereo not drawn) [Example 73, N-{3-[1-(4-Fluoro-phenyl)-1-methyl-propyl]-1H-indol-7-yl}-methanesulfonamide]
< 1000 nM | < 10000 nM | Cc1ccc(C(C)(C)c2c[nH]c3c(N)cccc23)cc1 [Example 41, 3-(1-Methyl-1-p-tolyl-ethyl)-1H-indol-7-ylamine]
< 500 nM | < 500 nM | CCC(CC)(c1cccc(C)c1)c1c[nH]c2c(NS(C)(=O)=O)cccc12 [Example 71, N-[3-(1-Ethyl-1-m-tolyl-propyl)-1H-indol-7-yl]-methanesulfonamide]
< 500 nM |  | CC(c1ccc2c(c1)OCCO2)(c1c[nH]c2c(NS(C)(=O)=O)cccc12)C1CC1 (stereo not drawn) [Example 129, N-{3-[1-Cyclopropyl-1-(2,3-dihydro-benzo[1,4]dioxin-6-yl)-ethyl]-1H-indol-7-yl}-methanesulfonamide]
< 500 nM |  | CCC(CC)(c1ccc2sc(NC(C)=O)nc2c1)c1c[nH]c2c(NS(C)(=O)=O)cccc12 [Example 196]
< 500 nM |  | COc1ccc(C(C)(c2c[nH]c3c(NS(C)(=O)=O)cccc23)C2CC2)cc1F (stereo not drawn) [Example 123]
< 500 nM |  | COc1cc(C(C)(c2c[nH]c3c(NS(C)(=O)=O)cccc23)C2CC2)ccc1Cl (stereo not drawn) [Example 124, N-{3-[1-(4-Chloro-3-methoxy-phenyl)-1-cyclopropyl-ethyl]-1H-indol-7-yl}-methanesulfonamide]
< 500 nM |  | CCC(CC)(c1ccc2ccn(C(C)=O)c2c1)c1c[nH]c2c(NS(C)(=O)=O)cccc12 [Example 183]
< 500 nM |  | CCC(CC)(c1ccc2cc(C)oc2c1)c1c[nH]c2c(NS(C)(=O)=O)cccc12 [Example 188]
< 500 nM |  | CCC(CC)(c1cccc2oc(C)cc12)c1c[nH]c2c(NS(C)(=O)=O)cccc12 [Example 184]
< 500 nM |  | CCC(CC)(c1ccc2c(c1)OCCO2)c1c[nH]c2c(NS(=O)(=O)CC)cccc12 [Example 133, N-{3-[1-(2,3-Dihydro-benzo[1,4]dioxin-6-yl)-1-ethyl-propyl]-1H-indol-7-yl}-ethanesulfonamide]
< 500 nM |  | CCC(CC)(c1ccc2c(c1)OCCO2)c1c[nH]c2c(NS(C)(=O)=O)cccc12 [Example 128, N-{3-[1-(2,3-Dihydro-benzo[1,4]dioxin-6-yl)-1-ethyl-propyl]-1H-indol-7-yl}-methanesulfonamide]
< 500 nM |  | CCC(CC)(c1ccc2c(c1)nc(C)n2C)c1c[nH]c2c(NS(C)(=O)=O)cccc12 [Example 198]
< 500 nM |  | CCC(COC)(c1ccccc1)c1c[nH]c2c(NS(C)(=O)=O)cccc12 (stereo not drawn) [Example 74, N-[3-(1-Methoxymethyl-1-phenyl-propyl)-1H-indol-7-yl]-methanesulfonamide]
< 500 nM |  | COc1cc(C(C)(c2c[nH]c3c(NS(C)(=O)=O)cccc23)C2CC2)ccc1F (stereo not drawn) [Example 125, N-{3-[1-Cyclopropyl-1-(4-fluoro-3-methoxy-phenyl)-ethyl]-1H-indol-7-yl}-methanesulfonamide]
< 500 nM |  | CCS(=O)(=O)Nc1cccc2c([C@](C)(c3ccc(F)cc3F)C3CC3)c[nH]c12 (stereo in doubt) [Example 126, Ethanesulfonic acid {3-[1-cyclopropyl-1-(2,4-difluoro-phenyl)-ethyl]-1H-indol-7-yl}-amide]
< 500 nM |  | CC(c1ccc2c(c1)OCO2)(c1c[nH]c2c(NS(C)(=O)=O)cccc12)C1CC1 (stereo not drawn) [Example 131, N-[3-(1-Benzo[1,3]dioxol-5-yl-1-cyclopropyl-ethyl)-1H-indol-7-yl]-methanesulfonamide]
< 500 nM |  | CC(c1ccc(F)cc1)(c1c[nH]c2c(NS(C)(=O)=O)cccc12)C1CCC1 (stereo not drawn) [Example 127, N-{3-[1-Cyclobutyl-1-(4-fluoro-phenyl)-ethyl]-1H-indol-7-yl}-methanesulfonamide]
< 500 nM |  | C[C@](c1ccc2c(c1)OCCO2)(c1c[nH]c2c(NS(C)(=O)=O)cccc12)C1CC1 [Example 194]
< 500 nM |  | CC(C)(c1ccccc1-c1ccccc1)c1c[nH]c2c(NS(C)(=O)=O)cccc12 [Example 34, N-[3-(1-Biphenyl-2-yl-1-methyl-ethyl)-1H-indol-7-yl]-methanesulfonamide]
